Key:
[1] = system: GLB1-null Ex 2-3 cerebral organoids; format: cell-based, human
[2] = system: GLB1-null Ex 2-3 cerebral organoids; assay: Neuronal survival and health in the human brain organoid model of GM1 gangliosidosis; format: cell-based; details: 5 nM, 500 nM; concomitant with the GM1 reduction
[3] = system: control or GLB1-null cerebral organoids; assay: Cellularity test in cerebral organoids; format: cell-based, human; details: any timepoint, 5 nM, 500 nM

For `OC[C@H]1[C@@H](O)[C@H](O)[C@@H](O)CN1CCCCCOCc1ccc(-c2ccccc2)c(F)c1` [nizubaglustat], the GM1 accumulation ([1]; 5 nM, 500 nM, weeks 18, 20 and 24, dose-dependent fashion, GLB1-null Ex 2-3 cerebral organoids) was “significantly reduced”, the “level of GLB1 in the EX 2-3 cell line” value ([1]; Week 24, representative images (Figure 4 top panel), green stain) was “significantly reduces” and the “reduced the level of GM1 ganglioside” value ([1]; after 24 weeks of regular (2-3 times per week) administration) was “at least 2 fold”. The “neuronal survival and health” value [2] was “increased” and the cellularity [3] was “did not reduce”.

Source: EP4595964A1, “TREATMENT OF GM1 GANGLIOSIDOSIS” (Azafaros B.V., priority 2024, dated 2025)
